According to ChEMBL document CHEMBL1201862, “PubChem BioAssay data set” (2004):
Each block holds one compound with its values, some of them ahead of it. Active and inactive are the calls of the source.

Key:
[1] = molecular target: T1, Short transient receptor potential channel 4 (Mus musculus, UniProt Q9QUQ5); assay: potentiation of DAMGO-evoked TRPC4 calcium signal – cell-based, HEK293 TRPC4/mu-opioid, Fluo-4 calcium, EC20 DAMGO, dose response (AID 434941); type: functional
T1 sequence (Q9QUQ5 whole entry): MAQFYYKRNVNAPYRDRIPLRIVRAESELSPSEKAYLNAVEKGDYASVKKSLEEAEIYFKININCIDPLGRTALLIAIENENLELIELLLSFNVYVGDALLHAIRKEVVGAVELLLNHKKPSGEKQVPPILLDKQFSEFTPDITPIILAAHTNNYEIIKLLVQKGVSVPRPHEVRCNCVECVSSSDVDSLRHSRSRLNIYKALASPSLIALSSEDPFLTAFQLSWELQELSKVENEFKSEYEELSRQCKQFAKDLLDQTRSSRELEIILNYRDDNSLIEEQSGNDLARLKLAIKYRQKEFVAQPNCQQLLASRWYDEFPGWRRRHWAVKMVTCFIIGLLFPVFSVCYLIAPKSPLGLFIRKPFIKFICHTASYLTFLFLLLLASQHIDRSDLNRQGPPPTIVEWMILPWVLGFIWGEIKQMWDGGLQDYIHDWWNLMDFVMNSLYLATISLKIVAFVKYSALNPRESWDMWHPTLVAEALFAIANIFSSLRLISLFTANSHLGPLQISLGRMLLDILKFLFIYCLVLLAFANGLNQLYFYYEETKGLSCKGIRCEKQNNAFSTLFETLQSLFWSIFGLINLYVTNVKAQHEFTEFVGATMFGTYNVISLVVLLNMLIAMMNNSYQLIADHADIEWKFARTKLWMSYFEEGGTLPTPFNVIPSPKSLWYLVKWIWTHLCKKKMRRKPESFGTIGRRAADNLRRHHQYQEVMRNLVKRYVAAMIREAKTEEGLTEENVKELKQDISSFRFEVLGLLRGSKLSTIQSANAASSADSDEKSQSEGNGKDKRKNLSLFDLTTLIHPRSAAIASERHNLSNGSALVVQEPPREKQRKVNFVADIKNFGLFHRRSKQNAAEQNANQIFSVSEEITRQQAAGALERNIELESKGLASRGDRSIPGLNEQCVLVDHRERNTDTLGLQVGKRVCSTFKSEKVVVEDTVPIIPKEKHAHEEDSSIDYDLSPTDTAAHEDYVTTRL

[2] = molecular target: T2, Tyrosine-protein phosphatase non-receptor type 22 (Homo sapiens, UniProt Q9Y2R2); assay: SAR LYP1 Fluorescent Assay using OMFP substrate for In Vitro dose response studies - Set 3. [Related pubchem assays (depositor defined):AID1779, AID1784, AID2140, AID2686]; type: functional
T2 sequence (Q9Y2R2 whole entry): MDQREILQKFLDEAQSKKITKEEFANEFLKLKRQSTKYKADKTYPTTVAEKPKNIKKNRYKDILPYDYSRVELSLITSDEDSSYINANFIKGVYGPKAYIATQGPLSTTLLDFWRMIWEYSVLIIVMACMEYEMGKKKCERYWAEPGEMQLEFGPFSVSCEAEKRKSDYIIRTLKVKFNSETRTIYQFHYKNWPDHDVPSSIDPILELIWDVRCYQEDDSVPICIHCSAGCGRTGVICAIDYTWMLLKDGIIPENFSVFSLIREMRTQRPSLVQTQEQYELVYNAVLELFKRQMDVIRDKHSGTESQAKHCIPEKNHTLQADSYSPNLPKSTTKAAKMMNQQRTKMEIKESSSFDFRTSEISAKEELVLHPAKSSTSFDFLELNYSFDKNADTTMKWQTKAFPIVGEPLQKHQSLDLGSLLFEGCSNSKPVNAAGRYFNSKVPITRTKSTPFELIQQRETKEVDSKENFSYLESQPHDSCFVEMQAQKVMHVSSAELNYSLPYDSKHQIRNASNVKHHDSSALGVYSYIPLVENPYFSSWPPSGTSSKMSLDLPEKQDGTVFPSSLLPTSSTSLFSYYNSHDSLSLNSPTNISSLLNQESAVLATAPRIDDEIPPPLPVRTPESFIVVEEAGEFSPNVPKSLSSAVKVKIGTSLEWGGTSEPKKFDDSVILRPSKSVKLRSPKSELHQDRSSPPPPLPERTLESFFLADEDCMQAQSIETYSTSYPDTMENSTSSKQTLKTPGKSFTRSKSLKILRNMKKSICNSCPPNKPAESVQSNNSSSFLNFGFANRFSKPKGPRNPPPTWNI

[3] = molecular target: T3, Tyrosine-protein phosphatase non-receptor type 12 (Homo sapiens, UniProt Q05209); assay: SAR Selectivity Analysis of small molecule inhibitors of PEST using pCAP in a fluorescence assay. [Related pubchem assays (depositor defined):AID1779, AID1784, AID2135]; type: functional
T3 sequence (Q05209 whole entry): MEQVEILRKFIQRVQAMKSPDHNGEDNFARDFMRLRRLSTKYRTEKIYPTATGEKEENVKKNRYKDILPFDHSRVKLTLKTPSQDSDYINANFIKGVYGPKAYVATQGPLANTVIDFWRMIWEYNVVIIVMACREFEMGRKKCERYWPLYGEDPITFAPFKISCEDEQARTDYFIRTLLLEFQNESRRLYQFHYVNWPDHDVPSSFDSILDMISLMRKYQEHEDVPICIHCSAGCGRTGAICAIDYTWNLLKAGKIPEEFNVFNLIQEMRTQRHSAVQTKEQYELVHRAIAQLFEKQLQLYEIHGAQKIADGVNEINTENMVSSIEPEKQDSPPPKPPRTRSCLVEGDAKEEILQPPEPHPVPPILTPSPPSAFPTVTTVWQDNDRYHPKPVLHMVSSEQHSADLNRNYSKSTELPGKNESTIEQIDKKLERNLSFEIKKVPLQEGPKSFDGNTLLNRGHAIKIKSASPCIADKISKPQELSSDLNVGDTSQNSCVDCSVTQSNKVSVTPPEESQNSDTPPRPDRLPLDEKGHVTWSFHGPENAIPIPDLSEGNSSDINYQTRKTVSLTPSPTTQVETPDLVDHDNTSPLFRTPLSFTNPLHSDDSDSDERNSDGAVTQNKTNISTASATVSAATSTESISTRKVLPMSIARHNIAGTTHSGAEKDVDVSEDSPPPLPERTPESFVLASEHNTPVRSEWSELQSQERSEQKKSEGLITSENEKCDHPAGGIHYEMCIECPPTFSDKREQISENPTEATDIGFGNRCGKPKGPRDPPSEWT

[4] = molecular target: T4, Dual specificity protein phosphatase 6 (Rattus norvegicus, UniProt Q64346); type: functional;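 further: confirmatory in vitro dose-response testing of MKP-3 inhibition; recombinant His-tagged MKP-3 made in E. coli BL21 with OMFP substrate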
T4 sequence (Q64346 whole entry): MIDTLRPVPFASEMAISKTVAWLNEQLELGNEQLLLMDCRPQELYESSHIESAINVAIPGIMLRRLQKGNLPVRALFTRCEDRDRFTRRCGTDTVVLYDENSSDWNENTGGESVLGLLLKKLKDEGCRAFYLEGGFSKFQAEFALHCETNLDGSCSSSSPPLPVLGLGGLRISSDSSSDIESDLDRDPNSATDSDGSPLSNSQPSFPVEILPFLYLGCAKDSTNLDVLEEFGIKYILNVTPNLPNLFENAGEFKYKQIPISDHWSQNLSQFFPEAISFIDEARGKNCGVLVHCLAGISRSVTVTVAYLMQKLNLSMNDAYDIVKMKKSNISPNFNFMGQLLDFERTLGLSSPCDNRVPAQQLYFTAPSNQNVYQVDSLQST

[5] = molecular target: T2, Tyrosine-protein phosphatase non-receptor type 22; assay: inhibition of lymphoid tyrosine phosphatase LYP – biochemical, pCAP fluorogenic substrate, fluorescence, set 3, SAR follow-up (AID 449727); type: functional
[6] = molecular target: Dual specificity protein phosphatase 3 (Homo sapiens, UniProt P51452); assay: SAR VHR1 Fluorescent Assay for In Vitro dose response studies Set 2. [Related pubchem assays (depositor defined):AID1654, AID1661, AID1878]; type: functional
[7] = molecular target: T5, Tyrosine-protein phosphatase non-receptor type 7 (Homo sapiens, UniProt P35236); assay: redox-active compounds inhibiting HePTP phosphatase – biochemical, fluorescence, mechanism study (AID 2068); type: functional
T5 sequence (P35236 whole entry): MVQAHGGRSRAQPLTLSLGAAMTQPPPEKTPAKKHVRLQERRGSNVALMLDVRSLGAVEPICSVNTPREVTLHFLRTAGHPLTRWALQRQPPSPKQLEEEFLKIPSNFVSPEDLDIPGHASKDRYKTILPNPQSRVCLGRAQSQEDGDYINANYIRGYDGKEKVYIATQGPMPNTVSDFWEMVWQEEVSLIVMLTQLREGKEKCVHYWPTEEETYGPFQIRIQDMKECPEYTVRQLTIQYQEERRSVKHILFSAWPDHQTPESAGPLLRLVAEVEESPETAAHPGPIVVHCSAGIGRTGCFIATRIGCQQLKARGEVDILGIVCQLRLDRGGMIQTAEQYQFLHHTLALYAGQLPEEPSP

[8] = NIH/3T3 cell viability loss – mouse embryonic fibroblasts, dry powder, set 2, cytotoxicity control, dose response (AID 493247); type: functional, cell-based; settings: Fibroblast
[9] = molecular target: T6, Kappa-type opioid receptor (Homo sapiens, UniProt P41145); assay: SAR analysis of small molecule antagonists of the kappa opioid receptor via a luminescent beta-arrestin assay - Set 4. [Related pubchem assays (depositor defined):AID1777, AID1778, AID1785, AID1786, AID1966, AID2133, AID2136, AID2285]; type: functional
[10] = molecular target: Mu-type opioid receptor (Homo sapiens, UniProt P35372); assay: SAR Analysis of Antagonists of the MOR Receptor using an Image-Based Assay - Set 3. [Related pubchem assays (depositor defined):AID1777, AID1785, AID1786, AID1966, AID2133, AID2136, AID2284, AID2285, AID2420]; type: functional
[11] = molecular target: T6, Kappa-type opioid receptor; assay: SAR analysis of Antagonists of the Kappa Opioid Receptor (KOR) using an Image-Based Assay - Set 4. [Related pubchem assays (depositor defined):AID1777, AID1785]; type: functional
[12] = molecular target: T6, Kappa-type opioid receptor; assay: SAR analysis of small molecule antagonists of the kappa opioid receptor via a luminescent beta-arrestin assay - Set 6. [Related pubchem assays (depositor defined):AID1777, AID1778, AID1785, AID1786, AID1966, AID2133, AID2136, AID2285]; type: functional
[13] = molecular target: Delta-type opioid receptor (Homo sapiens, UniProt P41143); assay: SAR Analysis of Antagonists of the DOR Receptor using an Image-Based Assay - Set 3. [Related pubchem assays (depositor defined):AID1777, AID1785]; type: functional;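 further: U2OS cells expressing DOR1 and beta-arrestin GFP stimulated with 100 nM SNC80; imaging of GFP-tagged beta-arrestin moving into spots after receptor activation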
[14] = test system: Streptococcus; assay: GAS UMAA2166 growth inhibition – luminescence, BacTiterGlo, counter-screen for streptokinase expression inhibitor project, dose response (AID 1915); type: functional, organism-based;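 further: potency for reduction of bacterial viability or growth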
[15] = test system: INS1; assay: INS-1E survival protection against cytokine death – cell-based, luminescence, retest, dose response (AID 449756); type: functional; settings: Rattus norvegicus, INS1;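 further: cell death triggered by IL-1 beta plus TNF-alpha plus IFN-gamma mixture; protective hits raise ATP signal compared with cytokine alone wells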
[16] = molecular target: Albumin (Bos taurus, UniProt P02769); assay: Counterscreen for inhibitors of T-cell receptor (TCR)-CD3 interaction: Fluorescence-based biochemical high throughput dose response assay to identify inhibitors of T-cell receptor (TCR)-CD3 interaction using a TAMRA-labeled BSA probe.; type: functional
[17] = molecular target: NS3 (Hepatitis C virus, UniProt A3EZJ3); assay: PubChem AID 2173; parameters: species or system Hepacivirus hominis
[18] = test system: Streptococcus sp. 'group A'; assay: Streptococcus pyogenes SK(-)GAS viability under kanamycin – luminescence, BacTiterGlo, confirmation, counter-screen for streptokinase expression inhibitor project, dose response (AID 1900); type: functional, organism-based
[19] = molecular target: T7, Caspase-3 (Homo sapiens, UniProt P42574); assay: activation of caspase-3 zymogen – biochemical, absorbance, dose response (AID 489014)
T7 sequence (P42574 whole entry): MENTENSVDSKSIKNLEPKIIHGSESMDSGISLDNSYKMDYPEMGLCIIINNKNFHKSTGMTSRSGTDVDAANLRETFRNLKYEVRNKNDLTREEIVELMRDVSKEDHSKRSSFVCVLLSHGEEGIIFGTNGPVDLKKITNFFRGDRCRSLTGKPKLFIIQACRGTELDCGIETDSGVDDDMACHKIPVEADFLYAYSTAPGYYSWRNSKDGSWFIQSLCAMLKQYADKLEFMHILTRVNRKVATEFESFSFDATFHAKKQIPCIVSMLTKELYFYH

[20] = molecular target: Caspase-7 (Homo sapiens, UniProt P55210); assay: activation of caspase-7 zymogen – biochemical, absorbance, counter-screen for procaspase-3 activator project, dose response (AID 489013)
Chain of Caspase-7 (P55210 24-198 limits assumed): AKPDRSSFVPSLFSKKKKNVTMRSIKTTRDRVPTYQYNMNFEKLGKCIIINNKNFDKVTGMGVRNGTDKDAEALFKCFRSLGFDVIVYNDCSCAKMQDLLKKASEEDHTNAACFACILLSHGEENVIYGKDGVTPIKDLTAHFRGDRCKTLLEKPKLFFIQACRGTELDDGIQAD
Chain of Caspase-7 (P55210 207-303 limits assumed): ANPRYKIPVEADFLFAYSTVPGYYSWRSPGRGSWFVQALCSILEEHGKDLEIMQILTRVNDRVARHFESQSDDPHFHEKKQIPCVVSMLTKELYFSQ

T6 sequence (P41145 whole entry): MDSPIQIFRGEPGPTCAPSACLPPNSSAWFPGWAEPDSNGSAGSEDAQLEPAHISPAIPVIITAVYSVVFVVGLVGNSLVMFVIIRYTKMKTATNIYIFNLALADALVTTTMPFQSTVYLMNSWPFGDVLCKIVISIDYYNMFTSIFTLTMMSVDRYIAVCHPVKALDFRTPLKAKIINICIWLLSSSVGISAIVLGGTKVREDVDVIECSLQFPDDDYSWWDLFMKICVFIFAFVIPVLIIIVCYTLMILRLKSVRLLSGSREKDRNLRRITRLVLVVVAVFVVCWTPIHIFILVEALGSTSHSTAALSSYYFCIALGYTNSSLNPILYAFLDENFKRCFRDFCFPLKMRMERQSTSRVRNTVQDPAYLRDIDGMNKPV
Chain of Delta-type opioid receptor (P41143 whole entry): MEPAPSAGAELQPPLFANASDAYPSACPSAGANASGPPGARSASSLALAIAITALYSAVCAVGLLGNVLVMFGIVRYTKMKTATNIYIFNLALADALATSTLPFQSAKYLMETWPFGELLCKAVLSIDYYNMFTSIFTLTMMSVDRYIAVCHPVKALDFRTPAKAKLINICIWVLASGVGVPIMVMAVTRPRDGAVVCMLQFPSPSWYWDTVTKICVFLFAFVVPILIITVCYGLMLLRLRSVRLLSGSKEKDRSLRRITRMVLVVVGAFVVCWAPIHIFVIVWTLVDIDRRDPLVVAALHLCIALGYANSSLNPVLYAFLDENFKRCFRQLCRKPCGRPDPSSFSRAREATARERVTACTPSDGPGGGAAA
Chain of Mu-type opioid receptor (P35372 whole entry): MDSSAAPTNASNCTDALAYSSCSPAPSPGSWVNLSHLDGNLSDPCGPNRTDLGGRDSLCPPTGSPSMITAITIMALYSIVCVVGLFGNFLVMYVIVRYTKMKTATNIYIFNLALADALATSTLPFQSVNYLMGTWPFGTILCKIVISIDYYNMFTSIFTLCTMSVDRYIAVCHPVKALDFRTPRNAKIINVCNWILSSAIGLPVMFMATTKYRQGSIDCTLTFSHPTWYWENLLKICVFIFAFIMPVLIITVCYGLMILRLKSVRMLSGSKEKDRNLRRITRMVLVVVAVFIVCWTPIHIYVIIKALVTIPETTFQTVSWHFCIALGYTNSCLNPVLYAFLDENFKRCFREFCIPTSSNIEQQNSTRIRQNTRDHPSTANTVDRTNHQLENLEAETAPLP
Chain of NS3 (A3EZJ3 whole entry): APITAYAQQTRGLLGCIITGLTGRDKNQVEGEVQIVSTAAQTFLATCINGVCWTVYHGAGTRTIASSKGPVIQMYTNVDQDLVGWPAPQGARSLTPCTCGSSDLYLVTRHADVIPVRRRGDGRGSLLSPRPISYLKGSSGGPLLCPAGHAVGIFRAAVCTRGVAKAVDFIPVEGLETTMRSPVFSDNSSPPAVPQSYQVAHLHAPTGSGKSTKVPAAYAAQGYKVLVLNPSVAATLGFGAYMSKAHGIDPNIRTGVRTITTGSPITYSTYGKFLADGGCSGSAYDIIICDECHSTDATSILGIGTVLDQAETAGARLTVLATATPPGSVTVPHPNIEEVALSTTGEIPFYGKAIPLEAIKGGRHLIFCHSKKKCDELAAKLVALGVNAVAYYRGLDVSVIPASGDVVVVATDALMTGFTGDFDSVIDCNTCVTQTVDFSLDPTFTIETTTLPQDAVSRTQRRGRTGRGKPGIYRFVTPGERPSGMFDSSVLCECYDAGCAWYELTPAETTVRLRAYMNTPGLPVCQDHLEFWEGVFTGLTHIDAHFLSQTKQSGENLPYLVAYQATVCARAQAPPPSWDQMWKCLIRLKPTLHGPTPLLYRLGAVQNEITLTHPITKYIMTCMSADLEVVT
Chain of Albumin (P02769 whole entry): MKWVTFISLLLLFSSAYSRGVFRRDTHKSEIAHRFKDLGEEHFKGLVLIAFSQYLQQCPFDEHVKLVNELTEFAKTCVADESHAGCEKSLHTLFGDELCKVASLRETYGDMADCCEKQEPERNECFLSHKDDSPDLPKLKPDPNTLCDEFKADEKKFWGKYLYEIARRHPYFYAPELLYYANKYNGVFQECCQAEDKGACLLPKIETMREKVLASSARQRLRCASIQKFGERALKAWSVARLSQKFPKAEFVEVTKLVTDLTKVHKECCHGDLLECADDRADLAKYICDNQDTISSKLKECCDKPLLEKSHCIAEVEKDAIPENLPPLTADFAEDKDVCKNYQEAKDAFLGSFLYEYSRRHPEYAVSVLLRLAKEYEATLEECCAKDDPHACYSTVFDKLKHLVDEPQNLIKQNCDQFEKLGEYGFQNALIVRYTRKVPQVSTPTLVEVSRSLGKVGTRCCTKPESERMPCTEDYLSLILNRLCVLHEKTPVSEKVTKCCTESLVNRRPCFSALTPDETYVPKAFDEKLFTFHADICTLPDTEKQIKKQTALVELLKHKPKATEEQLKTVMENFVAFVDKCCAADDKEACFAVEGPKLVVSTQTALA
Chain of Dual specificity protein phosphatase 3 (P51452 whole entry): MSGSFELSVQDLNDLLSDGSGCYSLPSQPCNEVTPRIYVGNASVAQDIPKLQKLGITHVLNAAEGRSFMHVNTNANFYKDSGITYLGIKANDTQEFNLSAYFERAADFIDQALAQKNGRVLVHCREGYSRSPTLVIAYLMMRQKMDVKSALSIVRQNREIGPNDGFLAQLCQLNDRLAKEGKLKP

EC50 [1]: 2.11 µM (active)
SMILES: COC(=O)[C@@]12CCCCN1[C@H](c1ccc(-c3cccc(Cl)c3)c(OC)c1)[C@H]1C(=O)N(C)C(=O)[C@H]12

SMILES: COc1cc(/C=C2\SC(=O)N(CC(=O)Nc3cccc(C)c3)C2=O)cc(Cl)c1OCC(=O)O
IC50 [2]: 4.96 µM (active)
IC50 [3]: 2.2 µM (active)
IC50 [4]: > 100 µM (inactive)
IC50 [5]: 3.69 µM (active)
IC50 [6]: 17.9 µM (active)
IC50 [7]: 3.63 µM (active)

SMILES: CN(Cc1ccccc1)C(=O)C1CCCN(Cc2ccc(C(F)(F)F)cc2)C1 (stereo not given)
AC50 [8]: 61.6 µM (active)

IC50 [9]: 0.0467 µM (active)
IC50 [10]: 15.1 µM (inactive)
IC50 [11]: < 0.0031 µM (active)
IC50 [12]: 0.0675 µM (active)
IC50 [13]: > 32 µM (inactive)
SMILES: Cc1ccc(S(=O)(=O)N2CCc3cc(C(=O)NCCN(Cc4ccccc4)C(C)C)ccc3C2)cc1

SMILES: Oc1c(Br)cc(Br)cc1/C=N/NC(=S)N[C@H]1CC2C=CC1C2 (stereo not given in full)
EC50 [14]: 0.448 µM (active)
AC50 [15]: 2 µM (active)
IC50 [16]: > 94.1 µM (inactive)
IC50 [17]: 7.8 µM (active)
EC50 [18]: 0.109 µM (active)
EC50 [19]: > 9.47 µM (active)
EC50 [20]: > 85.3 µM (inactive)
